Literature values as cited in patent publication US6369001B1, “Microemulsion coformulation of a graminicide and a water-soluble herbicide” (Monsanto Technology, LLC, priority 1999, dated 2002).
Entries after “also recorded” stand apart in the source; their conditions may differ.

Conditions: aqueous medium

SMILES | pH dependence of chemical stability / hydrolysis in water
COC(=O)C(C)Oc1ccc(Oc2ccc(Cl)cc2Cl)cc1 (stereo not drawn) [diclofop-methyl] | undergoes hydrolysis more readily in an alkaline medium
CCOC(=O)[C@@H](C)Oc1ccc(Oc2cnc3cc(Cl)ccc3n2)cc1 [quizalofop-P-ethyl] | hydrolysis occurring most rapidly when pH is in the alkaline range; also recorded: greater chemical stability in acid to neutral than in alkaline media
CCO/N=C(\CC)C1=C(O)CC(c2c(C)cc(C)cc2C)CC1=O (stereo not drawn) [tralkoxydim] | especially unstable in an acid medium; also recorded: much more stable at pH 9 than at pH 5
